Data taken from the NIST ThermoML archive (doi:10.1021/acs.jced.7b00578).
Values joined by “and” are separate entries in the source; they are usually repeats but may differ in a detail not shown here. Identical values can stand only once.

Assays:
[1] = molar heat capacity at constant pressure; conditions: 101.33 kPa, Liquid, Extra sensitive DSC
[2] = Liquid, Closed cell (Static) method

CC1COC(=O)O1 (stereo unspecified) [4-methyl-1,3-dioxolan-2-one]
Conditions	molar heat capacity at constant pressure [J/K/mol]	vapor or sublimation pressure
[1], 262.22 K	162.94	–
[1], 265 K	163.34	–
[1], 270 K	164.16	–
[1], 275 K	164.98	–
[1], 280 K	165.79	–
[1], 285 K	166.61	–
[1], 290 K	167.53	–
[1], 295 K	168.45	–
[1], 300 K	169.37	–
[1], 305 K	170.29	–
[1], 310 K	171.2	–
[1], 315 K	172.23	–
[1], 320 K	173.14	–
[1], 325 K	174.17	–
[1], 330 K	175.19	–
[1], 335 K	176.11	–
[1], 340 K	177.13	–
[1], 345 K	178.15	–
[1], 350 K	179.17	–
[1], 355 K	180.09	–
[1], 357.99 K	180.7	–
[2], 278.19 K	–	0.00132 kPa
[2], 278.37 K	–	0.00133 kPa
[2], 278.39 K	–	0.00133 kPa
[2], 283.31 K	–	0.00214 kPa
[2], 283.32 K	–	0.00214 kPa
[2], 288.19 K	–	0.00332 kPa
[2], 288.2 K	–	0.00333 kPa
[2], 288.22 K	–	0.00332 kPa
[2], 293.12 K	–	0.00511 kPa
[2], 293.14 K	–	0.00512 kPa
[2], 293.15 K	–	0.00514 kPa and 0.00511 kPa
[2], 298.1 K	–	0.00778 kPa
[2], 298.11 K	–	0.00778 kPa
[2], 298.12 K	–	0.00777 kPa
[2], 303.01 K	–	0.01158 kPa and 0.01155 kPa
[2], 303.03 K	–	0.01156 kPa
[2], 307.94 K	–	0.01701 kPa and 0.01698 kPa
[2], 307.95 K	–	0.01694 kPa and 0.01696 kPa
[2], 312.97 K	–	0.0247 kPa and 0.02472 kPa
[2], 312.98 K	–	0.02474 kPa
[2], 312.99 K	–	0.02479 kPa
[2], 317.91 K	–	0.03529 kPa
[2], 317.92 K	–	0.0353 kPa and 0.03533 kPa and 0.03536 kPa
[2], 322.9 K	–	0.04993 kPa
[2], 322.92 K	–	0.04996 kPa and 0.05002 kPa and 0.05 kPa
[2], 327.8 K	–	0.06936 kPa
[2], 327.81 K	–	0.06935 kPa and 0.06932 kPa and 0.06938 kPa
[2], 332.89 K	–	0.09634 kPa and 0.09635 kPa
[2], 332.91 K	–	0.09643 kPa
[2], 332.92 K	–	0.09645 kPa
[2], 337.83 K	–	0.1311 kPa
[2], 337.84 K	–	0.1311 kPa and 0.1312 kPa
[2], 337.85 K	–	0.1312 kPa
[2], 342.82 K	–	0.177 kPa
[2], 342.83 K	–	0.1772 kPa
[2], 342.84 K	–	0.1773 kPa and 0.1772 kPa
[2], 347.69 K	–	0.2353 kPa
[2], 347.7 K	–	0.2354 kPa
[2], 352.55 K	–	0.3096 kPa
[2], 352.58 K	–	0.3102 kPa
[2], 352.59 K	–	0.3103 kPa
[2], 357.59 K	–	0.4078 kPa
[2], 357.6 K	–	0.4079 kPa
[2], 362.51 K	–	0.529 kPa
[2], 362.53 K	–	0.5293 kPa and 0.5294 kPa and 0.5295 kPa
